Values quoted from earlier work in the CATMoS acute toxicity set (Mansouri et al. 2021).
Values joined by “and” are separate entries in the source; they are usually repeats but may differ in a detail not shown here. Identical values can stand only once.

experiment: rat acute oral toxicity; settings: in vivo

Row | SMILES | LD50
1 | CCC(CCN(CC=C(C)C)CC=C(C)C)(C(N)=O)c1cccc2ccccc12 (stereo unspecified) | 283 mg/kg
2 | Cc1ccc(S(=O)(=O)/C=C/C#N)cc1 | 1440 mg/kg
3 | C[Si]1(C)OCCN(CCO)CCO1 | 3400 mg/kg
4 | C(=NCCCCCCN=Cc1ccco1)c1ccco1 | 490 mg/kg
5 | CCN(CC)CCCNc1c2ccccc2nc2cccc([N+](=O)[O-])c12 | 63.2 mg/kg
6 | CCOC(=O)CCCCCCCCC(=O)OCC | 14500 mg/kg
7 | CCCC(C)(C)C(=O)Nc1ccc(Cl)cc1 | 2600 mg/kg
8 | CCOP(=O)(NC(C)=O)SC (stereo unspecified) | 500 mg/kg
9 | N#CC(OC1OC(COC2OC(CO)C(O)C(O)C2O)C(O)C(O)C1O)c1ccccc1 (stereo unspecified) | 517 mg/kg
10 | COP(=S)(OC)SCOC(C)=O | 93 mg/kg
11 | CCC=C(C)CO | 4920 mg/kg
12 | c1coc(OCC2CO2)c1 (stereo unspecified) | 1100 mg/kg
13 | O=C(Nc1ccc(Br)cc1)c1cc(Br)ccc1O | 410 mg/kg
14 | COc1ccc2c(c1)c(CC(=O)O)c(C)n2C(=O)/C=C/c1ccccc1 | 900 mg/kg
15 | OCC(O)CN1CCN(c2ccccc2)CC1 (stereo unspecified) | 750 mg/kg
16 | Cc1ccc(SN2C(=O)c3ccccc3C2=O)cc1 | 5060 mg/kg
17 | NC(=O)C1c2ccccc2C=Cc2ccccc21 | 1800 mg/kg
18 | CCCCc1c(OC(=O)c2cccs2)n(-c2ccccc2)n(-c2ccccc2)c1=O | 1180 mg/kg
19 | CC(C)NNCS(=O)(=O)O | 330 mg/kg
20 | NCCOC(=O)c1ccccc1 | 9270 mg/kg
21 | COc1c(C)ccc(C)c1N(COC(C)C)C(=O)CCl | 1730 mg/kg
22 | CCNC(C)CN1CCc2c(c(=O)oc3ccccc23)C1 (stereo unspecified) | 300 mg/kg
23 | O=S(=O)(O)c1ccc2c(c1)-c1nc-2nc2[nH]c(nc3nc(nc4[nH]c(n1)c1ccccc41)-c1ccccc1-3)c1ccccc21 | 3600 mg/kg
24 | Cc1cc(C)c(C2=C(OC(=O)OC(C)C)c3ccccc3C2=O)c(C)c1 | 707 mg/kg
25 | CCCCC[C@H](O)/C=C/[C@H]1[C@H](O)CC(=O)[C@@H]1C/C=C\CCCC(=O)O | 500 mg/kg

Row | SMILES | LD50
26 | C1CN1c1nc(N2CC2)nc(N2CC2)n1 | 13 mg/kg
27 | COc1cc2c(cc1OC)-c1c(OC)c(OC)cc3c1C(C2)N(C)CC3 (stereo unspecified) | 545 mg/kg
28 | CCOC(C1=NCC(C)(CC)CN1)c1ccccc1 (stereo unspecified) | 220 mg/kg
29 | COc1ccc2c(c1)c(CC(=O)OCOC(=O)c1ccccc1)c(C)n2C(=O)c1ccc(Cl)cc1 | 73 mg/kg
30 | CCN(CC)CCO | 1300 mg/kg
31 | C[N+](C)(C)CCC[N+]1(C)CC2C3C=CC(CC3)C2C1 (stereo unspecified) | 1730 mg/kg
32 | O=C(CCCN1CCC2(CCCCC2)CC1)c1ccc(F)cc1 | 200 mg/kg
33 | Cc1ccc(C)c(C)c1C | 6410 mg/kg
34 | CCN(CC)CCSC(=O)N(c1ccccc1)c1ccccc1 | 370 mg/kg
35 | O=C1CN=C(c2ccccn2)c2cc(Br)ccc2N1 | 1950 mg/kg
36 | CC(C)COC(=O)CCCOc1ccc(Cl)cc1Cl | 300 mg/kg
37 | CC1=CCC2CC1C2(C)C (stereo unspecified) | 3700 mg/kg
38 | CC1(C)COC1=O | 1470 mg/kg
39 | CCOP(=O)(Oc1ccc(Cl)cc1Cl)Oc1ccc(Cl)cc1Cl | 6200 mg/kg
40 | CCOP(=S)(OCC)Oc1cc(C)nc(N(C)C)n1 | 125 mg/kg
41 | CCCN(CCCCOC(=O)c1ccc(OC)c(OC)c1)C1CCc2cc(OC)ccc2C1 (stereo unspecified) | 707 mg/kg
42 | CC1CC=NN1C(=N)N=C(N)N (stereo unspecified) | 4350 mg/kg
43 | CC(CCl)[N+](=O)[O-] (stereo unspecified) | 197 mg/kg
44 | CCOC1Oc2ccc(OS(C)(=O)=O)cc2C1(C)C (stereo unspecified) | 1130 mg/kg
45 | CCC(OC(C)=O)C(CC(C)NC)(c1ccccc1)c1ccccc1 (stereo unspecified) | 44 mg/kg
46 | O=C(O)Cc1ccc(-c2ccccc2)cc1 | 164 mg/kg
47 | COc1cccc([C@]2(O)CCCC[C@H]2CN(C)C)c1 (single isomer, unassigned) | 228 mg/kg
48 | CCN(CC)c1ccc(N=Nc2ccc(S(=O)(=O)N(C)C)cc2)c(S(=O)(=O)NCC[n+]2ccccc2)c1 | 5120 mg/kg
49 | CC(c1ccccc1)c1ccccc1CCl (stereo unspecified) | 4700 mg/kg
50 | CN1C(=O)c2ccc([N+](=O)[O-])cc2C1=O | 2800 mg/kg

Row | SMILES | LD50
51 | Fc1c(Cl)c(Cl)c2nc(C(F)(F)F)[nH]c2c1Cl | 2.39 mg/kg
52 | CC(C(=O)OCCCS(=O)(=O)O)c1ccc(-c2ccccc2)cc1 (stereo unspecified) | 280 mg/kg
53 | C=C[Si](Cl)(Cl)CC | 2830 mg/kg
54 | CCOP(=O)(OCC)Sc1ccc([N+](=O)[O-])cc1 | 4.41 mg/kg
55 | CCOC(C1=NCC(C)(C)CN1)c1cccc(Cl)c1 (stereo unspecified) | 95 mg/kg
56 | COP(=S)(OC)Oc1cc(C)ccc1C(C)C | 750 mg/kg
57 | CC1=NN(c2ccc(C)cc2)C(=O)C1 | 7450 mg/kg
58 | OCCN1CCN(CCC=C2c3ccccc3Sc3ccc(Cl)cc32)CC1 | 660 mg/kg
59 | O=NN(CCCl)C(=O)NCCS(=O)(=O)N1CCCCC1 | 125 mg/kg
60 | COP(=O)(OC)OC(=CBr)c1ccc(Cl)cc1Cl | 225 mg/kg
61 | CCCN(N=O)C(N)=O | 480 mg/kg
62 | CN(C)C(=O)Oc1c(Cl)c(Cl)cc2[nH]c(C(F)(F)F)nc12 | 41 mg/kg
63 | CC(=O)OCC#N | 32 mg/kg
64 | CC(=O)Oc1ccc(Br)cc1C(=O)O | 1130 mg/kg
65 | COC(=O)N(CCCl)N=O | 20 mg/kg
66 | CC(C)(C)NCC(O)c1cc(Cl)c(N)c(Cl)c1 (stereo unspecified) | 159 mg/kg
67 | ON=CC=NO | 119 mg/kg
68 | CCCC(=O)Oc1ccc(OC)cc1 | 3400 mg/kg
69 | CCCCN(N=O)c1ccc(N(CCCC)N=O)cc1 | 2600 mg/kg
70 | CCCCCCOCCCCCC | 30900 mg/kg
71 | NCCCCN | 463 mg/kg
72 | NC(CCC(=O)O)C(=O)O (racemic) | 10000 mg/kg
73 | OCCNCC(O)CNCCO | 7200 mg/kg
74 | OC(CCN1CCCCC1)(c1ccccc1)C1CCCC1 (stereo unspecified) | 628 mg/kg
75 | O=[N+]([O-])OC1COC2C(O)COC12 (stereo unspecified) | 2300 mg/kg

Row | SMILES | LD50
76 | O=P(O)(O)OCC(Cl)(Cl)Cl | 850 mg/kg and 1900 mg/kg
77 | CC(O)C(c1ccc2c(c1)OCO2)N1CCOCC1 (stereo unspecified) | 2470 mg/kg
78 | OC(c1ccccc1)(c1ccccc1)C1CCCCN1 (stereo unspecified) | 180 mg/kg
79 | COc1c(Cl)ccc(Cl)c1C(=O)O | 6760 mg/kg and 2630 mg/kg
80 | C/N=N/Nc1ccc(Cl)cc1 | 329 mg/kg
81 | CCOC(=O)C=C(C)OP(=O)(OCC)OCC | 22 mg/kg
82 | Oc1c(I)cc(I)c(O)c1I | 8200 mg/kg
83 | Cc1cc(CC(=O)O)n(C)c1C(=O)c1ccc(Cl)cc1 | 27 mg/kg
84 | ClC1=C(Cl)C2(Cl)C3C4C=CC(O4)C3C1(Cl)C2(Cl)Cl (stereo unspecified) | 68 mg/kg
85 | C=CCOC(=O)c1ccc(C(=O)OCC=C)c(C(=O)OCC=C)c1 | 2400 mg/kg
86 | CCOC(=O)C=Cc1ccc2c(c1)OCO2 | 948 mg/kg
87 | CC(C)OP(=S)(OC(C)C)SCn1nc(-c2ccccc2)ccc1=O | 25000 mg/kg
88 | CC(C)(N)CCCCCCCCCCOCCO | 1850 mg/kg
89 | OC/C=C/Cl | 102 mg/kg
90 | NC(=S)Nc1ccc(-c2ccc(NC(N)=S)cc2)cc1 | 200 mg/kg
91 | CNc1nsc2ccccc12 | 576 mg/kg
92 | ClCc1cccnc1 | 316 mg/kg
93 | CCCCCCCCCCCCSC#N | 1250 mg/kg
94 | Cc1cccc(C(C)C)c1 | 2970 mg/kg
95 | CCN(COC)N=O | 540 mg/kg
96 | CCCCC(C)=O | 2590 mg/kg
97 | FC(F)(F)c1nc2ccc(Cl)cc2[nH]1 | 6.82 mg/kg
98 | O=C1CCOc2ccccc21 | 2650 mg/kg
99 | OCCC1CCN(CCC=C2c3ccc(F)cc3Sc3ccc(C(F)(F)F)cc32)CC1 | 1.5 mg/kg
100 | COCCc1ccc(OCC(O)CNC(C)C)cc1 (stereo unspecified) | 3470 mg/kg

Row | SMILES | LD50
101 | CC1=CC[C@@H]2C[C@@H](C[C@]3(CC[C@H](C)[C@@H](C)O3)O2)OC(=O)[C@@H]2C=C(C)[C@@H](O)[C@H]3OCC(=CC=C[C@H](C)C1)[C@]32O | 456 mg/kg
102 | CC(C)(C)c1ccccc1 | 3040 mg/kg
103 | CCCCN(CCCC)CCC(O)c1cc2c(Cl)cc(Cl)cc2c2cc(C(F)(F)F)ccc12 (stereo unspecified) | 3400 mg/kg
104 | CC[N+]1(C)[C@@H]2C[C@@H](OC(=O)[C@H](CO)c3ccccc3)C[C@H]1[C@@H]1O[C@@H]12 (stereo partly specified) | 2250 mg/kg
105 | CCNCc1cc([N+](=O)[O-])ccc1O | 1010 mg/kg
106 | CCCCC(O)CC (stereo unspecified) | 1870 mg/kg
107 | O=c1n(CCCN2CCN(c3cccc(Cl)c3)CC2)nc2ccccn12 | 690 mg/kg
108 | CCOP(=O)(OCC)SCSP(=S)(OCC)OCC | 35.1 mg/kg
109 | CCCCCCCCCCCCCCCCOC(=O)Cc1ccc(N(CCCl)CCCl)cc1 | 100 mg/kg
110 | CCCN=C(C(OC)c1ccccc1)N1CCCCCC1 (stereo unspecified) | 55 mg/kg
111 | COC(=O)C1=C(C)NC(C)=C(C(=O)OCC(C)(C)CN(C)Cc2ccccc2)C1c1cc([N+](=O)[O-])ccc1F (stereo unspecified) | 30.5 mg/kg
112 | CCC(C)OC(C)=O (stereo unspecified) | 3200 mg/kg
113 | CCCCCCCCCCCC[N+](C)(C)CC(O)CCl (stereo unspecified) | 1070 mg/kg
114 | CCNC(=O)Nc1ncc([N+](=O)[O-])s1 | 2150 mg/kg
115 | CNC(=O)Oc1cccc(C(C)C)c1Cl | 35 mg/kg
116 | CCOP(=S)(OCC)O/N=C(\C#N)c1ccccc1 | 300 mg/kg
117 | C=CCCCCCCCCC(=O)O | 2500 mg/kg
118 | CC[N+]1(CCOC(=O)C(O)(c2ccccc2)c2ccccc2)CCCCC1 | 4600 mg/kg
119 | O=C1CCCCC(=O)N1 | 22600 mg/kg
120 | CC(CN(CCN(CC(C)OB(O)O)CC(C)OB(O)O)CC(C)OB(O)O)OB(O)O (stereo unspecified) | 4930 mg/kg
121 | ClCCCCCCCl | 2680 mg/kg
122 | CC(=O)OCOC(=O)C1=C(COC(N)=O)SC2C(C(C)O)C(=O)N12 (stereo unspecified) | 7230 mg/kg
123 | COC(N)=O | 2500 mg/kg
124 | CCSP(=O)(OC)OC | 13.8 mg/kg
125 | CC(C)Cc1ccc(C(C)C(=O)OCc2ccccn2)cc1 (stereo unspecified) | 1440 mg/kg

Row | SMILES | LD50
126 | ClCC1C(CCl)C2(Cl)C(Cl)=C(Cl)C1(Cl)C2(Cl)Cl (stereo unspecified) | 200 mg/kg
127 | C=CC(=O)OCCSCC | 2500 mg/kg
128 | CS(=O)(=O)OC(CCN1CCCCC1)(c1ccccc1)c1ccccc1 | 1240 mg/kg
129 | O=C(OCCCOC(=O)c1ccccc1)c1ccccc1 | 24000 mg/kg
130 | O=[N+]([O-])C=C1SCCN1Cc1ccccc1 | 1000 mg/kg
131 | O=C(O)C(O)(c1ccccc1)C1CCCCC1 (stereo unspecified) | 2670 mg/kg
132 | C=CC=C | 5480 mg/kg
133 | COc1cc(N)ccc1N | 60 mg/kg and 70 mg/kg
134 | CCN(CC)CCSSCCN(CC)CC | 340 mg/kg
135 | OC[C@@H](O)[C@H]1O[C@@H]2O[C@H](C(Cl)(Cl)Cl)O[C@@H]2[C@H]1O | 400 mg/kg
136 | CCN(CC(F)(F)F)N=O | 960 mg/kg
137 | CC(C)COCC(CN(Cc1ccccc1)c1ccccc1)N1CCCC1 (stereo unspecified) | 6850 mg/kg
138 | Cc1cccc(C(=O)O)c1O | 445 mg/kg
139 | Cc1ccc(N)c(S(=O)(=O)O)c1 | 11700 mg/kg
140 | CC(C)CCOC(CO)CC(C)C (stereo unspecified) | 5410 mg/kg
141 | CCOC(=O)Nc1ccc(NC(Cc2ccccc2)c2ccccc2)nc1N (stereo unspecified) | 163 mg/kg
142 | O=[N+]([O-])c1ccc(Oc2c(Cl)cc(Cl)cc2Cl)cc1 | 10800 mg/kg
143 | O=[N+]([O-])c1ccc(OP(=O)(OCCCCl)OCCCCl)cc1 | 33 mg/kg
144 | CCCCCCCCCCCCCCOCCOCCOCCOCCOCCOCCOCCO | 2600 mg/kg
145 | CC(C)(Oc1ccc(CCNC(=O)c2ccc(Cl)cc2)cc1)C(=O)O | 1080 mg/kg
146 | Oc1cc(Cl)c(Cl)cc1Cl | 1620 mg/kg
